Assay results from US9694040B2, “Hydrogenation of cannabis oil” (priority 2015, dated 2017).

Tested on: U87 (Human glioblastoma)
Assay: U87 glioblastoma subcutaneous xenograft tumor growth, excised tumor weight
Format: in vivo
Settings: for effect on tumor weight versus untreated vehicle: female athymic mice with U87 implants, 10 mg/kg body weight fed, compared with Vehicle 73.8 mg; for Tumor weight: female athymic mice, subcutaneous U87 implants (two per mouse), fed 10 mg/kg body weight, tumors excised and weighed at termination (about one week of treatment), average of six tumors, Vehicle 73.8 mg
Procedure: The effect of the hydrogenated and non-hydrogenated cannabis oil on tumor growth and angiogenesis were evaluated by implanting U87 (Human glioblastoma) 3×10^6 cells (50% matrigel) in […] female athymic mice. The site of implantation was subcutaneous with two implants per mouse. The date of implantation was Feb. 1, 2016 and the date of administering treatment was Feburary 3, 2016. There were three mice in each of the following groups, and the treatment consisted of feeding each of the three mice 10 mg/kg body weight of the treatment corresponding to each one of the following groups: • 1. Untreated Vehicle • 2. THCA • 3. CBDA • 4. HCBDA • 5. HTHCA
The termination date was Feb. 11, 2016. On this date, the tumors were excised and weighed. The results are shown in Table 1 and illustrated in the below plot.
It was assumed that the excised tumor weight for the “Untreated Vehicle” was essentially equivalent to its starting tumor weight.

Row | Structure (SMILES) | effect on tumor weight versus untreated vehicle | Tumor weight [mg]
1 | CCCCCc1cc2c(c(O)c1C(=O)O)[C@@H]1C=C(C)CC[C@H]1C(C)(C)O2 [THCA, Δ-9-tetrahydrocannabinoic acid] | effective to reduce tumor weight | 46.0
2 | CCCCCc1cc(O)c([C@@H]2CC(C)CC[C@H]2C(C)C)c(O)c1C(=O)O (some centres unmarked) [HCBDA, hydrogenated 9-cannabidioc acid] | effective to reduce tumor weight | 32.6
3 | C=C(C)[C@@H]1CCC(C)=C[C@H]1c1c(O)cc(CCCCC)c(C(=O)O)c1O [CBDA, Δ-9-cannabidiolic acid] | effective to reduce tumor weight | 39.1
4 | CCCCCc1cc2c(c(O)c1C(=O)O)[C@@H]1CC(C)CC[C@H]1C(C)(C)O2 (some centres unmarked) [HTHCA, hydrogenated 9-tetrahydrocannabinoic acid] | effective to reduce tumor weight | 44.5
